Counter-ions that a name gives are not always drawn.

One assay deals with RPA194. The assay is described as follows: RPA194 destruction / Pol I inhibition, high-content imaging in A375 cells. The class given is cell-based. Particulars: A375 cells treated for 4 hours, anti-RPA194 immunofluorescence; pIC50 >= 5.02 deemed a Pol I inhibitor. As for the experimental part: Cell culture: A375 cells (CRL-1619, ATCC) were grown in DMEM (GJBCO) supplemented with […] (GTBCO) in 5% CO2 at 37° C.
Cell treatment and Imaging: 18 hours post-seeding in cell carrier black 384-well plates (PerkinElmer) at 15 000 cells/well, A375 cells were treated for 4 hours with a positive control or test compounds (9 serial semi-log dilutions, top concentration 10 μM). Upon treatment A375 cells were (i) fixed for 15 min at RT with 4% of paraformaldehyde, (ii) permeabilized for 20 min at RT with 0.1-0.5% of NP-40, (iii) incubated with primary antibodies at 4° C.: anti-RPA194 (1:1000-1:1250 dilution, sc-48385, Santa Cruz Biotechnology) and anti-gH2Ax (1:5000 dilution, 81299, Abcam or 1:4000, JBW302, Millipore) (iv) incubated for 1 h at RT with Hoechst (1:5000 dilution, H3570, ThermoFisher) and secondary antibodies: anti-mouse-AlexaFluor488 (1:2000 dilution, A11001, ThermoFisher) and anti-rabbit-AlexaFluor647 (1:2000 dilution, A21443, ThermoFisher) or goat anti-mouse AlexaFluor-594 (1:1000 dilution). Images were acquired on an Operetta CLS High-Content Analysis System (PerkinElmer) (40× objective; 9 fields/well) and processed using the Columbus Image Analysis System (PerkinElmer) or by using Molecular Devices ImageXpress Micro XLS High Content Imager and MetaXpress high-content acquisition and analysis software.
In the table below, (+) is associated with a pIC50 5.02 to 5.8; (++) with pIC50 5.8 to 6.3; and (+++) with a pIC50 above 6.3.
Consider `CO[C@@H]1CCN(CCNC(=O)c2cccn3c(=O)c4ccc5ccccc5c4nc23)C1` [Example 24, (R)-N-(2-(3-methoxypyrrolidin-1-yl)ethyl)-7-oxo-7H-benzo[h]pyrido[2,1-b]quinazoline-12-carboxamide hydrochloride], for which the “Activity Range (pIC50)” value is on record as “++ ((++) with pIC50 5.8 to 6.3)”.

For `O=C(NCCN1CC[C@@H](F)C1)c1cccn2c(=O)c3ccc4ccccc4c3nc12` [Example 25, (R)-N-(2-(3-fluoropyrrolidin-1-yl)ethyl)-7-oxo-7H-benzo[h]pyrido[2,1-b]quinazoline-12-carboxamide hydrochloride], the “Activity Range (pIC50)” value is reported as “+ ((+) is associated with a pIC50 5.02 to 5.8)”.

With `C[C@@H](CN1C[C@H](O)[C@@H](O)C1)NC(=O)c1cccn2c(=O)c3ccc4ccccc4c3nc12` [Example 26, N-((S)-1-((3S,4S)-3,4-dihydroxy-pyrrolidin-1-yl)propan-2-yl)-7-oxo-7H-benzo[h]pyrido[2,1-b]quinazoline-12-carboxamide hydrochloride], the “Activity Range (pIC50)” value was “++ ((++) with pIC50 5.8 to 6.3)”.

Regarding `C[C@H](CN1C[C@H](O)[C@@H](O)C1)NC(=O)c1cccn2c(=O)c3ccc4ccccc4c3nc12` [Example 27, N-((R)-1-((3S,4S)-3,4-dihydroxy-pyrrolidin-1-yl)propan-2-yl)-7-oxo-7H-benzo[h]pyrido[2,1-b]quinazoline-12-carboxamide hydrochloride], the “Activity Range (pIC50)” value is reported as “++ ((++) with pIC50 5.8 to 6.3)”.

For the compound `C[C@@H](CN1CC[C@H](O)C1)NC(=O)c1cccn2c(=O)c3ccc4ccccc4c3nc12` [Example 28, N-((S)-1-((S)-3-hydroxypyrrolidin-1-yl)propan-2-yl)-7-oxo-7H-benzo[h]pyrido[2,1-b]quinazoline-12-[(2S)-2-aminopropyl] pyrrolidin-3-ol; hydrochloride (165 mg, carboxamide hydrochloride], the “Activity Range (pIC50)” value was “++ ((++) with pIC50 5.8 to 6.3)”.

In the case of `C[C@@H](CN1CC[C@@H](O)C1)NC(=O)c1cccn2c(=O)c3ccc4ccccc4c3nc12` [Example 29, N-((S)-1-((R)-3-hydroxypyrrolidin-1-yl)propan-2-yl)-7-oxo-7H-benzo[h]pyrido[2,1-b]quinazoline-12-carboxamide hydrochloride], the “Activity Range (pIC50)” value is “++ ((++) with pIC50 5.8 to 6.3)”.

`C[C@H](CN1CC[C@H](O)C1)NC(=O)c1cccn2c(=O)c3ccc4ccccc4c3nc12` [Example 30, N-((R)-1-((S)-3-hydroxypyrrolidin-1-yl)propan-2-yl)-7-oxo-7H-benzo[h]pyrido[2,1-b]quinazoline-12-carboxamide hydrochloride]: the “Activity Range (pIC50)” value was “+++ ((+++) with a pIC50 above 6.3)”.

Consider `C[C@H](CN1CC[C@@H](O)C1)NC(=O)c1cccn2c(=O)c3ccc4ccccc4c3nc12` [Example 31, N-((R)-1-((R)-3-hydroxypyrrolidin-1-yl)propan-2-yl)-7-oxo-7H-benzo[h]pyrido[2,1-b]quinazoline-12-carboxamide hydrochloride], for which the “Activity Range (pIC50)” value is listed as “+++ ((+++) with a pIC50 above 6.3)”.

For `O=C(NCCO)c1cccn2c(=O)c3ccc4ccccc4c3nc12` [Example 32, N-(2-hydroxyethyl)-7-oxo-7H-benzo[h]pyrido[2,1-b]quinazoline-12-carboxamide; hydrochloride], the “Activity Range (pIC50)” value is given as “+ ((+) is associated with a pIC50 5.02 to 5.8)”.

With `O=C(NCCN1CC[C@H](F)C1)c1cccn2c(=O)c3ccc4ccccc4c3nc12` [Example 33, (S)-N-(2-(3-fluoropyrrolidin-1-yl)ethyl)-7-oxo-7H-benzo[h]pyrido[2,1-b]quinazoline-12-carboxamide; hydrochloride], the “Activity Range (pIC50)” value is reported as “+ ((+) is associated with a pIC50 5.02 to 5.8)”.

For `O=C(NCCCN1CC2CCC(C1)O2)c1cccn2c(=O)c3ccc4ccccc4c3nc12` [Example 34, N-(3-(8-oxa-3-azabicyclo[3.2.1]octan-3-yl)propyl)-7-oxo-7H-benzo[h]pyrido[2,1-b]quinazoline-12-carboxamide; hydrochloride], the “Activity Range (pIC50)” value is listed as “+ ((+) is associated with a pIC50 5.02 to 5.8)”.

`C[C@@H]1CCCN1CCNC(=O)c1cccn2c(=O)c3ccc4ccccc4c3nc12` [Example 35, (R)-N-(2-(2-methylpyrrolidin-1-yl)ethyl)-7-oxo-7H-benzo[h]pyrido[2,1-b]quinazoline-12-carboxamide; hydrochloride 1]: the “Activity Range (pIC50)” value is “+ ((+) is associated with a pIC50 5.02 to 5.8)”.

On to `C[C@H]1CCCN1CCNC(=O)c1cccn2c(=O)c3ccc4ccccc4c3nc12` [Example 36, (S)-N-(2-(2-methylpyrrolidin-1-yl)ethyl)-7-oxo-7H-benzo[h]pyrido[2,1-b]quinazoline-12-yl)ethan-1-carboxamide; hydrochloride], for which the “Activity Range (pIC50)” value was “+ ((+) is associated with a pIC50 5.02 to 5.8)”.

As to `CN1CC(CNC(=O)c2cccn3c(=O)c4ccc5ccccc5c4nc23)C1` [Example 37, N-((1-methylazetidin-3-yl)methyl)-7-oxo-7H-benzo[h]pyrido[2,1-b]quinazoline-12-carboxamide; hydrochloride], the “Activity Range (pIC50)” value is recorded as “+ ((+) is associated with a pIC50 5.02 to 5.8)”.

Turning to `CN(C)CCCNC(=O)c1cccn2c(=O)c3ccc4ccccc4c3nc12` [Example 38, N-(3-(dimethylamino)propyl)-7-oxo-7H-benzo[h]pyrido[2,1-b]quinazoline-12-carboxamide; hydrochloride], the “Activity Range (pIC50)” value is reported as “+ ((+) is associated with a pIC50 5.02 to 5.8)”.

Turning to `O=C(NCCCN1CC[C@H](O)C1)c1cccn2c(=O)c3ccc4ccccc4c3nc12` [Example 39, (S)-N-(3-(3-hydroxypyrrolidin-1-yl)propyl)-7-oxo-7H-benzo[h]pyrido[2,1-b]quinazoline-12-carboxamide hydrochloride], the “Activity Range (pIC50)” value was “+ ((+) is associated with a pIC50 5.02 to 5.8)”.

With `O=C(NCCCN1CC[C@@H](O)C1)c1cccn2c(=O)c3ccc4ccccc4c3nc12` [Example 40, (R)-N-(3-(3-hydroxypyrrolidin-1-yl)propyl)-7-oxo-7H-benzo[h]pyrido[2,1-b]quinazoline-12-carboxamide; hydrochloride], the “Activity Range (pIC50)” value was “+ ((+) is associated with a pIC50 5.02 to 5.8)”.

The subject of another assay is NCI60 cancer cell lines.
Test: not given
Particulars: cited from earlier work.
With `CN(C)CCNC(=O)c1cccn2c(=O)c3cc4ccccc4cc3nc12` [BMH-21, 12H-Benzo[g]pyrido[2,1-b]quinazoline-4-carboxamide, N-[2(dimethylamino)ethyl]-12-oxo], the anticancer activity entry was “anticancer activity”.

In a further assay the test system is mouse xenograft.
Test: not given
Particulars: mouse xenograft assays; cited from earlier work.
In the case of `CN(C)CCNC(=O)c1cccn2c(=O)c3cc4ccccc4cc3nc12` [BMH-21, 12H-Benzo[g]pyrido[2,1-b]quinazoline-4-carboxamide, N-[2(dimethylamino)ethyl]-12-oxo], the tumor burden entry is on record as “reduced tumor burden”.

(Values after patent US12662482B2 (The Johns Hopkins University, priority 2020, dated 2026).)
